The target of data set [1] is T1, Thromboxane-A synthase (Homo sapiens, UniProt P24557).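 Also: enzyme inhibition assay with PGH2 supplied as substrate; in other assays of this panel Not Active means under 50% inhibition at 10 µM.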
T1 sequence (P24557 whole entry): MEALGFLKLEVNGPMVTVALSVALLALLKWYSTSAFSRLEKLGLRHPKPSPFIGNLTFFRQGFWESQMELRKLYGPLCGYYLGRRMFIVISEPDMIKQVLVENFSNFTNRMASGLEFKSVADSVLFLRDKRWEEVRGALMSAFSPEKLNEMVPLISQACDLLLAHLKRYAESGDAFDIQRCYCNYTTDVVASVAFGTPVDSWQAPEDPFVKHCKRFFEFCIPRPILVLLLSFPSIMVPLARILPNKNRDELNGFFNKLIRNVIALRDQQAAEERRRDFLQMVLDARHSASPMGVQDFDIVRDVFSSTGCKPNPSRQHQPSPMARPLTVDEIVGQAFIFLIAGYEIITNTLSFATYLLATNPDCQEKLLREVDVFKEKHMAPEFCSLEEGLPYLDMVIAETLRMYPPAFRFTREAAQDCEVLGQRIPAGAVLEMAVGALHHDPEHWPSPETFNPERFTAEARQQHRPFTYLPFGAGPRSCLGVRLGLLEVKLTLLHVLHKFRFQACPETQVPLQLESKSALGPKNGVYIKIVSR
Description: biochemical. The data set is classed as tissue-based, Platelet.

Data set [2] addresses Carbonic anhydrase 2 (Homo sapiens, UniProt P00918). Description: DRUGMATRIX: Carbonic Anhydrase II enzyme inhibition (substrate: 4-Nitrophenyl acetate (4-NPA)). The data set is classed as tissue-based, Erythrocyte. Particulars: Not Active = under 50% inhibition at 10 µM.
Data set [3] addresses Sodium-dependent dopamine transporter (Homo sapiens, UniProt Q01959). Description: DRUGMATRIX: Dopamine Transporter radioligand binding (ligand: [125I] RTI-55). The data set is classed as cell membranes, CHO-K1, Membrane. The settings on record: cho-k1; Not Active = under 50% inhibition at 10 µM.
Data set [4] can be described thus: DRUGMATRIX: Imidazoline I2, Central radioligand binding (ligand: [3H] Idazoxan). The settings on record: Not Active = under 50% inhibition at 10 µM. It is filed as cell membranes, Rattus norvegicus, Wistar, Cerebral cortex, Membrane.
The target in data set [5] is Protein kinase C alpha type (Homo sapiens, UniProt P17252). It is filed as cell-based. Particulars: sf9.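 Also: inhibition of PKCalpha kinase activity measured in an enzyme assay with histone as the phosphorylation substrate; in other assays of this panel Not Active means under 50% inhibition at 10 µM.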
The target of data set [6] is Tyrosine-protein kinase Fyn (Homo sapiens, UniProt P06241). Description: biochemical. It is filed as cell-based, Insect cells.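 Also: enzymatic inhibition of Fyn kinase activity measured with Poly(Glu:Tyr) as the phosphorylation substrate; in other assays of this panel Not Active means under 50% inhibition at 10 µM.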
Tyrosine-protein kinase Fyn, sequence (P06241 whole entry): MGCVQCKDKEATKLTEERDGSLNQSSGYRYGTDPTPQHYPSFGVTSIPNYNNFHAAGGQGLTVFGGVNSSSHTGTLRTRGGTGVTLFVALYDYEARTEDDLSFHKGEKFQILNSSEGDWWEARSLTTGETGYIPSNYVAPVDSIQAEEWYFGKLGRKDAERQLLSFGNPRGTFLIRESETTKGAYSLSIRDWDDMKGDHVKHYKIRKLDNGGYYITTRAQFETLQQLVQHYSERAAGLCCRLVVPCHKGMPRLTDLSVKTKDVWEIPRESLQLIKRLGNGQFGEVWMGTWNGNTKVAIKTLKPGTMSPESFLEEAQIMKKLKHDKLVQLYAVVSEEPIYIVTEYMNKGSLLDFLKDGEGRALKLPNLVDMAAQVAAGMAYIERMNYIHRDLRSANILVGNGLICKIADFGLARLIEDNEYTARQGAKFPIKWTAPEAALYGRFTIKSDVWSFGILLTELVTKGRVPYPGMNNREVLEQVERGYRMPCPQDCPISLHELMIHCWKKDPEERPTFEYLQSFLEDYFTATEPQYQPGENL
The target in data set [7] is Cytochrome P450 2C19 (Homo sapiens, UniProt P33261). The settings on record: bti-tn-5b1-4. Also: in other assays of this panel Not Active means under 50% inhibition at 10 µM.
Cytochrome P450 2C19, sequence (P33261 whole entry): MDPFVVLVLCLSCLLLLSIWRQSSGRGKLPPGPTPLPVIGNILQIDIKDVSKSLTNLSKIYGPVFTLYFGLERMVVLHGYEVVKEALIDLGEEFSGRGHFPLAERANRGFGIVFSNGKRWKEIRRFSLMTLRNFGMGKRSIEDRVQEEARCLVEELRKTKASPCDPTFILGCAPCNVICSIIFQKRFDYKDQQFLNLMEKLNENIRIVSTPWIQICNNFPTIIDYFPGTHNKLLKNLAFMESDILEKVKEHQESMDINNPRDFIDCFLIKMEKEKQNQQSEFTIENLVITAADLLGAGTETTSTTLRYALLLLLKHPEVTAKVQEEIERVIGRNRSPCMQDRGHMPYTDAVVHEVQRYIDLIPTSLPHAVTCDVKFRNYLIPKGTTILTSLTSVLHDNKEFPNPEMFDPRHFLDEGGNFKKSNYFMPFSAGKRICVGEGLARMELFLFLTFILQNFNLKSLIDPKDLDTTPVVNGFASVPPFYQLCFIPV

Sodium-dependent dopamine transporter, sequence (Q01959 whole entry): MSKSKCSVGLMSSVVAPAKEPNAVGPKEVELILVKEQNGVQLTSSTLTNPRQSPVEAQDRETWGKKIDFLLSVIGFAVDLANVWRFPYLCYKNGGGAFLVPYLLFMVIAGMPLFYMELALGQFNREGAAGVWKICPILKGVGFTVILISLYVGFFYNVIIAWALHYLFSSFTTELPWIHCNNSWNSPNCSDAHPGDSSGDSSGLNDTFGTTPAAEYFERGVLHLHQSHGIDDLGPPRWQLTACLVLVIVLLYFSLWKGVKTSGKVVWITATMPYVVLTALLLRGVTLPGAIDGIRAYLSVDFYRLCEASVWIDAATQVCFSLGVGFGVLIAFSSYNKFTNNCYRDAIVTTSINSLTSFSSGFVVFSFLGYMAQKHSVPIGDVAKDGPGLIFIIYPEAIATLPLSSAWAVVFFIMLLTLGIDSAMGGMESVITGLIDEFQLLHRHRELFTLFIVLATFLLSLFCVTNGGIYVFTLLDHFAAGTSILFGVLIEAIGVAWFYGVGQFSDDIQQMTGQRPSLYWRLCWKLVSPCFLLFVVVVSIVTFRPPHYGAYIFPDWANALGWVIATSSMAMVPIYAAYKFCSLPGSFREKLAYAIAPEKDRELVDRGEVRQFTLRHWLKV

The term IC50 denotes the concentration that gives 50% inhibition. In the case of `CC1=C(CC(=O)O)c2cc(F)ccc2/C1=C\c1ccc(S(C)(=O)=O)cc1` [EXISULIND], the IC50 result in data set [1] (platelet), in data set [2] (erythrocyte), in data set [3], in data set [4], in data set [5] and in data set [6] (insect cells) was “Not Active” throughout. For the same compound, in data set [7], the IC50 result is given as “Not Active”. Also, the Ki result in data set [4] and in data set [7] was “Not Active” in each case.
Consider `Nc1nc2c(c(=O)[nH]1)N(C=O)C(CNc1ccc(C(=O)N[C@@H](CCC(=O)O)C(=O)O)cc1)CN2` (stereo partly drawn) [LEUCOVORIN], for which the IC50 entry in data set [1] (platelet), in data set [2] (erythrocyte), in data set [3], in data set [4], in data set [5] and in data set [6] (insect cells) was “Not Active” each time. Also, in data set [7], the IC50 entry is “Not Active”. In addition, the Ki entry in data set [4] and in data set [7] was “Not Active” each time.
`C[C@@H](O)[C@H]1C(=O)N2C(C(=O)O)=C(S[C@@H]3CN[C@H](C(=O)N(C)C)C3)[C@H](C)[C@H]12` [MEROPENEM]: the IC50 entry in data set [1] (platelet), in data set [2] (erythrocyte), in data set [3], in data set [4], in data set [5] and in data set [6] (insect cells) was “Not Active” throughout. Moreover, the IC50 result in data set [7] is recorded as “Not Active”. Further, the Ki result in data set [4] and in data set [7] was “Not Active” each time.
With `O=P(O)(O)C(O)(Cc1cccnc1)P(=O)(O)O` [RISEDRONIC ACID], the IC50 entry in data set [1] (platelet), in data set [2] (erythrocyte), in data set [3], in data set [4], in data set [5] and in data set [6] (insect cells) was “Not Active” throughout. Besides, the IC50 result in data set [7] is “Not Active”. Further, the Ki entry in data set [4] and in data set [7] was “Not Active” throughout.
For `CN(CCOc1ccc(CC2SC(=O)NC2=O)cc1)c1ccccn1` (stereo not drawn) [ROSIGLITAZONE], the IC50 in data set [1] (read-out: IC50) was 3.56 µM; in data set [2] (read-out: IC50) it was 4.07 µM; in data set [3] it was “Not Active”; in data set [4], “Not Active”; in data set [5], “Not Active”; in data set [6] (insect cells), “Not Active”. Moreover, the IC50 entry in data set [7] is recorded as “Not Active”. For the same compound, the Ki entry in data set [4] and in data set [7] was “Not Active” in each case.
For `COc1ncnc(NS(=O)(=O)c2ccc(N)cc2)c1OC` [SULFADOXINE], the IC50 entry in data set [1] (platelet), in data set [2] (erythrocyte), in data set [3], in data set [4], in data set [5] and in data set [6] (insect cells) was “Not Active” throughout. The IC50 entry in data set [7] was “Not Active”. Further, the Ki entry in data set [4] and in data set [7] was “Not Active” throughout.
Consider `Nc1ccc(S(=O)(=O)Nc2nccs2)cc1` [SULFATHIAZOLE], for which the IC50 entry in data set [1] (platelet), in data set [2] (erythrocyte), in data set [3], in data set [4], in data set [5] and in data set [6] (insect cells) was “Not Active” in each case. Besides, in data set [7], the IC50 entry is given as “Not Active”. In addition, the Ki result in data set [4] and in data set [7] was “Not Active” each time.
`C[C@]12CC[C@H]3[C@@H](CCC4=CC(=O)CC[C@@]43C)[C@@H]1CC[C@@H]2O` [TESTOSTERONE]: the IC50 result in data set [1] (platelet), in data set [2] (erythrocyte), in data set [3], in data set [4], in data set [5] and in data set [6] (insect cells) was “Not Active” each time. In addition, the IC50 entry in data set [7] is “Not Active”. For the same compound, the Ki entry in data set [4] and in data set [7] was “Not Active” each time.
Consider `CC(C)(C)NC[C@H](O)COc1nsnc1N1CCOCC1` [TIMOLOL], for which the IC50 result in data set [1] (platelet), in data set [2] (erythrocyte), in data set [3], in data set [4], in data set [5] and in data set [6] (insect cells) was “Not Active” in each case. The IC50 result in data set [7] is reported as “Not Active”. The Ki entry in data set [4] and in data set [7] was “Not Active” throughout.
Take `C[C@@H]1C[C@H]2[C@@H]3CCC4=CC(=O)C=C[C@]4(C)C3=CC[C@]2(C)[C@H]1C(=O)CN1CCN(c2cc(N3CCCC3)nc(N3CCCC3)n2)CC1` [TIRILAZAD]: the IC50 entry was “Not Active” in data set [1] (platelet); “Not Active” in data set [2] (erythrocyte); “Not Active” in data set [3]; “Not Active” in data set [4]; “Not Active” in data set [5]; 1120 nM in data set [6] (read-out: IC50). For the same compound, the IC50 result in data set [7] was “Not Active”. The Ki entry in data set [4] and in data set [7] was “Not Active” each time.
`NC[C@H]1O[C@H](O[C@H]2[C@H](O)[C@@H](O[C@H]3O[C@H](CO)[C@@H](O)[C@H](N)[C@H]3O)[C@H](N)C[C@@H]2N)[C@H](N)C[C@@H]1O` [TOBRAMYCIN]: the IC50 result in data set [1] (platelet), in data set [2] (erythrocyte), in data set [3], in data set [4], in data set [5] and in data set [6] (insect cells) was “Not Active” each time. Also, the IC50 entry in data set [7] was “Not Active”. The Ki entry in data set [4] and in data set [7] was “Not Active” each time.
For the compound `O=C(O)C(Cl)(Cl)Cl` [TRICHLOROACETIC ACID], the IC50 entry in data set [1] (platelet), in data set [2] (erythrocyte), in data set [3], in data set [4], in data set [5] and in data set [6] (insect cells) was “Not Active” throughout. Also, the half-maximal inhibitory concentration (IC50) result in data set [7] was “Not Active”. Besides, the Ki entry in data set [4] and in data set [7] was “Not Active” each time.
As to `CC(=O)O[C@H]1C[C@@H]2CC[C@@H]3[C@H](CC[C@@]4(C)[C@H]3C[C@H]([N+]3(C)CCCCC3)[C@@H]4OC(C)=O)[C@@]2(C)C[C@@H]1N1CCCCC1.[Br-]` [VECURONIUM BROMIDE], the IC50 entry in data set [1] (platelet), in data set [2] (erythrocyte), in data set [3], in data set [4], in data set [5] and in data set [6] (insect cells) was “Not Active” in each case. In addition, the IC50 entry in data set [7] is given as “Not Active”. Further, the Ki entry in data set [4] and in data set [7] was “Not Active” in each case.
For the compound `COc1cc(C(=O)NS(=O)(=O)c2ccccc2C)ccc1Cc1cn(C)c2ccc(NC(=O)OC3CCCC3)cc12` [ZAFIRLUKAST], the IC50 was 3.81 µM in data set [1] (read-out: IC50); “Not Active” in data set [2] (erythrocyte); “Not Active” in data set [3]; “Not Active” in data set [4]; “Not Active” in data set [5]; “Not Active” in data set [6] (insect cells). Besides, the IC50 result in data set [7] was “Not Active”. Moreover, the Ki result in data set [4] and in data set [7] was “Not Active” in each case.
Take `Cc1cn([C@H]2C[C@H](N=[N+]=[N-])[C@@H](CO)O2)c(=O)[nH]c1=O` [ZIDOVUDINE]: the IC50 result in data set [1] (platelet), in data set [2] (erythrocyte), in data set [3], in data set [4], in data set [5] and in data set [6] (insect cells) was “Not Active” each time. Moreover, the IC50 result in data set [7] is given as “Not Active”. Besides, the Ki result in data set [4] and in data set [7] was “Not Active” each time.
In the case of STANNOUS FLUORIDE, the IC50 result in data set [1] (platelet), in data set [2] (erythrocyte), in data set [3], in data set [4], in data set [5] and in data set [6] (insect cells) was “Not Active” throughout. The IC50 result in data set [7] was “Not Active”. Also, the Ki entry in data set [1] (platelet), in data set [2] (erythrocyte), in data set [3], in data set [4], in data set [5] and in data set [6] (insect cells) was “Not Active” in each case. In data set [7], the Ki entry was “Not Active”.
On to THIMEROSAL, for which the IC50 result in data set [1] (platelet), in data set [2] (erythrocyte), in data set [3], in data set [4], in data set [5] and in data set [6] (insect cells) was “Not Active” throughout. Moreover, the IC50 entry in data set [7] is recorded as “Not Active”. Moreover, the Ki result in data set [1] (platelet), in data set [2] (erythrocyte), in data set [3], in data set [4], in data set [5] and in data set [6] (insect cells) was “Not Active” each time. The Ki result in data set [7] is given as “Not Active”.

(Values after ChEMBL document CHEMBL1909046, “DrugMatrix in vitro pharmacology data”.)
